Columns and labels:
Assay in all cases: NCI 60 cell line screen
Assay type in all cases: cell-based
[1] = tested on: SR; conditions: Leukemia, single concentration 10^−5 M
Protocol: (§1) The cytotoxic activity of nortopsintin analogs (4a-4j) was determined by the national cancer institute (NCI, Bethesda, Maryland, USA) against 60 different cancer cell lines at a single concentration of (10^-5 M). For the determination of IC50 value, we used MTT assay kit (Sigma) according to the manufacturer's protocol. HCT-116 cells were seeded into a 96-well plate at a concentration of 20,000 cells/well. After 24 h, the media was aspirated and replaced with serum-free media containing serial dilutions of the 4i compound. […] The percentage of cytotoxicity was calculated using the following equation: % Cytotoxicity = [1 - ([…])] × 100.

[2] = tested on: HOP-92; conditions: HOP-92, Non-Small Cell Lung Cancer; single concentration 10^−5 M
Protocol: as §1

[3] = tested on: BT-549; conditions: BT-549, Breast Cancer; single concentration 10^−5 M
Protocol: as §1

[4] = tested on: NCI/ADR-RES; conditions: Ovarian Cancer, single concentration 10^−5 M
Protocol: as §1

[5] = tested on: UO-31; conditions: UO-31, Renal Cancer; single concentration 10^−5 M
Protocol: as §1

[6] = tested on: M14; conditions: M14, Melanoma; single concentration 10^−5 M
Protocol: as §1

[7] = tested on: NCI-H460; conditions: NCI-H460, Non-Small Cell Lung Cancer; single concentration 10^−5 M
Protocol: as §1

[8] = tested on: NCI-H522; conditions: NCI-H522, Non-Small Cell Lung Cancer; single concentration 10^−5 M
Protocol: as §1

[9] = tested on: T-47D; conditions: Breast Cancer, single concentration 10^−5 M
Protocol: as §1

[10] = tested on: HCT-15; conditions: HCT-15, Colon Cancer; single concentration 10^−5 M
Protocol: as §1

[11] = tested on: NCI-H23; conditions: NCI-H23, Non-Small Cell Lung Cancer; single concentration 10^−5 M
Protocol: as §1

[12] = tested on: SNB-75; conditions: SNB-75, CNS Cancer; single concentration 10^−5 M
Protocol: as §1

[13] = tested on: SNB-19; conditions: SNB-19, CNS Cancer; single concentration 10^−5 M
Protocol: as §1

[14] = tested on: HS 578T; conditions: Breast Cancer, single concentration 10^−5 M
Protocol: as §1

[15] = tested on: A498; conditions: A498, Renal Cancer; single concentration 10^−5 M
Protocol: as §1

[16] = tested on: SN12C; conditions: Renal Cancer, single concentration 10^−5 M
Protocol: as §1

[17] = tested on: CCRF-CEM; conditions: Leukemia, single concentration 10^−5 M
Protocol: as §1

[18] = tested on: ACHN; conditions: Renal Cancer, single concentration 10^−5 M
Protocol: as §1

[19] = tested on: HCC-2998; conditions: HCC-2998, Colon Cancer; single concentration 10^−5 M
Protocol: as §1

[20] = tested on: EKVX; conditions: Non-Small Cell Lung Cancer, single concentration 10^−5 M
Protocol: as §1

[21] = tested on: PC-3; conditions: PC-3, Prostate Cancer; single concentration 10^−5 M
Protocol: as §1

[22] = tested on: SK-MEL-28; conditions: SK-MEL-28, Melanoma; single concentration 10^−5 M
Protocol: as §1

[23] = tested on: DU-145; conditions: DU-145, Prostate Cancer; single concentration 10^−5 M
Protocol: as §1

[24] = tested on: COLO205; conditions: COLO205, Colon Cancer; single concentration 10^−5 M
Protocol: as §1

[25] = tested on: KM12; conditions: KM12, Colon Cancer; single concentration 10^−5 M
Protocol: as §1

[26] = tested on: MCF7; conditions: MCF7, Breast Cancer; single concentration 10^−5 M
Protocol: as §1

[27] = tested on: OVCAR-3; conditions: OVCAR-3, Ovarian Cancer; single concentration 10^−5 M
Protocol: as §1

[28] = tested on: TK-10; conditions: TK-10, Renal Cancer; single concentration 10^−5 M
Protocol: as §1

[29] = tested on: MALME-3M; conditions: Melanoma, single concentration 10^−5 M
Protocol: as §1

[30] = tested on: UACC-257; conditions: UACC-257, Melanoma; single concentration 10^−5 M
Protocol: as §1

[31] = tested on: CAKI-1; conditions: CAKI-1, Renal Cancer; single concentration 10^−5 M
Protocol: as §1

[32] = tested on: LOX IMVI; conditions: Melanoma, single concentration 10^−5 M
Protocol: as §1

[33] = tested on: NCI-H226; conditions: NCI-H226, Non-Small Cell Lung Cancer; single concentration 10^−5 M
Protocol: as §1

[34] = tested on: OVCAR-5; conditions: OVCAR-5, Ovarian Cancer; single concentration 10^−5 M
Protocol: as §1

[35] = tested on: IGROV1; conditions: IGROV1, Ovarian Cancer; single concentration 10^−5 M
Protocol: as §1

[36] = tested on: UACC-62; conditions: UACC-62, Melanoma; single concentration 10^−5 M
Protocol: as §1

[37] = tested on: OVCAR-4; conditions: OVCAR-4, Ovarian Cancer; single concentration 10^−5 M
Protocol: as §1

[38] = tested on: SW-620; conditions: SW-620, Colon Cancer; single concentration 10^−5 M
Protocol: as §1

SMILES | Growth % [1] [%] | Growth % [2] [%] | Growth % [3] [%] | Growth % [4] [%] | Growth % [5] [%] | Growth % [6] [%] | Growth % [7] [%] | Growth % [8] [%] | Growth % [9] [%] | Growth % [10] [%] | Growth % [11] [%] | Growth % [12] [%] | Growth % [13] [%] | Growth % [14] [%] | Growth % [15] [%] | Growth % [16] [%] | Growth % [17] [%] | Growth % [18] [%] | Growth % [19] [%] | Growth % [20] [%] | also measured
N#Cc1c(-c2ccc(F)cc2)cc(-c2c[nH]c3ccccc23)nc1-c1c[nH]c2ccccc12 [4d] | 89.11 | 93.44 | 108.84 | 103.38 | 84.72 | 97.40 | 104.14 | 97.04 | 89.92 | 99.59 | 100.43 | 98.55 | 102.08 | 95.18 | 89.44 | 98.76 | 102.09 | 101.89 | 109.40 | 92.76 | Growth % [21]: 103.05%; Growth % [22]: 106.51%; Growth % [23]: 106.26%; Growth % [24]: 113.48%; Growth % [25]: 100.66%; Growth % [26]: 89.33%; Growth % [27]: 102.48%; Growth % [28]: 127.59%; Growth % [29]: 101.85%; Growth % [30]: 107.07%; Growth % [31]: 92.51%; Growth % [32]: 107.36%; Growth % [33]: 94.04%; Growth % [34]: 109.33%; Growth % [35]: 102.10%; Growth % [36]: 98.33%; Growth % [37]: 101.04%; Growth % [38]: 106.63%
CN(C)c1ccc(-c2cc(-c3c[nH]c4ccccc34)nc(-c3c[nH]c4ccccc34)c2C#N)cc1 [4i] | 32.38 | 104.62 | 103.60 | 90.91 | 72.88 | 97.66 | 60.31 | 93.15 | 95.86 | 44.65 | 88.40 | 86.73 | 79.65 | 104.13 | 98.45 | 92.07 | 78.55 | 98.60 | 88.23 | 93.75 | Growth % [21]: 89.56%; Growth % [22]: 101.89%; Growth % [23]: 99.65%; Growth % [24]: 91.18%; Growth % [25]: 58.37%; Growth % [26]: 49.30%; Growth % [27]: 91.03%; Growth % [28]: 107.28%; Growth % [29]: 97.41%; Growth % [30]: 101.12%; Growth % [31]: 68.37%; Growth % [32]: 70.02%; Growth % [33]: 79.62%; Growth % [34]: 102.79%; Growth % [35]: 74.28%; Growth % [36]: 85.78%; Growth % [37]: 95.26%; Growth % [38]: 46.63%

From publication PMC11530689, “Anti colorectal cancer activity and in silico studies of novel pyridine nortopsentin analog as cyclin dependent kinase 6 inhibitor” (Scientific Reports, 2024)
